# Laboratory results taken from US7208524B2, “5-amidino-2-hydroxybenzenesulfonamide derivatives, pharmaceutical compositions containing the same and intermediates for their preparation” (Kissei Pharmaceutical Co., Ltd., priority 2000, dated 2007).
# Legend:
# human thrombin = target: T1, human thrombin (Homo sapiens, UniProt P00734); assay: Measurement of inhibitory activity for thrombin (S-2238 chromogenic substrate); assay type: biochemical; details: S-2238, 10 minutes at 37° C., pH 8.4
# T1 construct: human thrombin (Sigma Chemical Company); purchased Sigma Chemical Company
# Experimental: (§1) 2.5 μL of a dimethylsulfoxide solution of a test compound, 187.5 μL of 100 mM tris-200 mM NaCl buffer (pH 8.4) and 50 μL of 1 mM S-2238 (Daiichi Pure Chemicals) aqueous solution were poured into 96 well microplate. Then 10 μL of 2.0 U/mL human thrombin (Sigma Chemical Company) in gelatin-glycine buffer was added and the mixture was incubated for 10 minutes at 37° C. The reaction was terminated with the addition of 50 μL of 60% acetic acid and absorbance (405 nm) was measured by a microplate reader (SPECTRAmax 250, Molecular Devices).
# The group with 2.5 μL of the dimethylsulfoxide solution instead of the test compound solution was defined as the control, and the group with 10 μL of the gelatin-glycine buffer solution instead of human thrombin was defined as the blank. The concentration of a test compound that inhibited the absorbance of control by 50% (IC50) was obtained, and this value was used as the index of inhibitory activity for thrombin.
# normal human plasma = assay: Measurement of anticoagulation effects (prolongation of plasma prothrombin time)
# Experimental: Two μL of a dimethylsulfoxide solution of a test compound was put in the process tube and then incubated at 37° C. One minute after addition of 48 μL of normal human plasma (George King Bio-Medical Inc), 100 μL of plasma prothrombin time reagent (Boehringer Mannheim) prewarmed at 37° C. was added into the mixture. Prothrombin time was measured with a coagulometer (ST4, Boehringer Mannheim).
# The group without any test compound was defined as the control. The concentration of test compound that prolonged the clotting time of the control by 2 times (CT2) was obtained and, this value was used as the index of anticoagulation activity.
# [1] = target: T2, human activated blood coagulation factor X (Homo sapiens, UniProt P00742); assay: Measurement of inhibitory activity for activated blood coagulation factor X (S-2222 chromogenic substrate); assay type: biochemical; details: S-2222, 10 minutes at 37° C., pH 8.4
# T2 construct: purchased Calbiochem
# Experimental: as §1, with “S-2222” for “S-2238”, “0.6” for “2.0”, “activated blood coagulation factor X (Calbiochem)” for “thrombin (Sigma Chemical Company)”
# Target sequence in this assay (P00742 235-488 limits assumed): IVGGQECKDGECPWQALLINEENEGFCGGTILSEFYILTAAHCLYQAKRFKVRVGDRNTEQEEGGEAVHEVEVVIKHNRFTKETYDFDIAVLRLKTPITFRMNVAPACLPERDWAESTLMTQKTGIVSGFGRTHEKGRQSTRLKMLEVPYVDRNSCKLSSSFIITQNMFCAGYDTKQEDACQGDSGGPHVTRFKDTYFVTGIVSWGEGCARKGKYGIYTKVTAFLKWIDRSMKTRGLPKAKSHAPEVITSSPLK
# Target sequence in this assay (P00742 41-179 partner limits assumed): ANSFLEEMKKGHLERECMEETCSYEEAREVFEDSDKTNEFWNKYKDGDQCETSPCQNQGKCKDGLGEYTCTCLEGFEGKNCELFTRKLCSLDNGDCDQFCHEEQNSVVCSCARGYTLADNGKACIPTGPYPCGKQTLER
# The group with 2.5 μL of the dimethylsulfoxide solution instead of the test compound solution was defined as the control, and the group with 10 μL of the gelatin-glycine buffer solution instead of human activated blood coagulation factor X was defined as the blank.
# Male ICR mice = assay: Acute toxicity test; assay type: in vivo; details: 50.0 mg/10.0 mL/kg into tail vein, survival judged for 24 hours, groups of 5
# Experimental: Male ICR mice aged 7 weeks (SLC) were divided into several groups consisted of 5 mice. A solution containing a test compound was prepared at the concentration that became the administration volume of the test compound to be 50.0 mg/10.0 mL/kg. The solution was administered into tail vein at an infusion rate of 1 mL/minute. Observations were performed at constant interval, and survival rate was judged for 24 hours. Results were shown as Table 5, and no death case was observed.
# [2] = target: T2, human activated blood coagulation factor X; assay: Oral administration test in rats: anti-activated blood coagulation factor X activity in plasma; assay type: in vivo, rat; details: male Wistar rats, 30 minutes after oral administration, 30 mg/kg; plasma tested against human factor Xa
# Experimental: (§2) Male Wistar rats aged 6–9 weeks (SLC) fasted overnight were used. A test compound was dissolved or suspended in 0.5% methylcellulose solution at the concentration of 6.0 mg/mL. Then 5.0 mL/kg of that was orally administrated into the rats. Before and at proper time points after administration of the test compound, citrated (1:10 dilution, 3.13% sodium citrate) blood was collected from the jugular vein. Plasma samples were obtained by centrifugation.
# 2.5 μL of plasma sample, 200 μL of 100 mM tris-200 mM NaCl buffer (pH 8.4) and 10 μL of 0.06 U/mL human activated blood coagulation factor X (Calbiochem) in gelatin-glycine buffer were poured into 96 well microplate. Then 50 μL of 1 mM S-2222 (Daiichi Pure Chemicals) aqueous solution was added and the mixture was incubated for 10 minutes at room temperature. The reaction was terminated with the addition of 50 μL of 60% acetic acid and absorbance (405 nm) was measured by a microplate reader (SPECTRAmax 250, Molecular Devices).
# The group with 2.5 μL of the control plasma instead of the plasma sample was defined as the control, and the group with 10 μL of gelatin-glycine buffer solution instead of human activated blood coagulation factor X was defined as the blank. The inhibitory % of plasma sample was calculated from absorbance of the control as 100% and this value was used as the index of anti-activated blood coagulation factor X activity in plasma.
# (§3) 4) Results of anti-activated blood coagulation factor X activity in plasma and PT ratio at 30 minutes after oral administration of each test compound at a dose of 30 mg/kg were shown as Table 4.
# Target sequence in this assay (P00742 235-488 limits assumed): as the sequence (P00742 235-488 limits assumed) above
# Target sequence in this assay (P00742 41-179 limits assumed): as the sequence (P00742 41-179 partner limits assumed) above
# plasma prothrombin time = assay: Oral administration test in rats: prothrombin time (PT) of plasma; assay type: in vivo, rat; details: male Wistar rats, 30 minutes after oral administration, 30 mg/kg; PT after administration to that before
# Experimental: as §2
# Fifty μL of plasma was put in the process tube and then incubated at 37° C. One minute later, 100 μL of plasma PT reagent (Boehringer Mannheim) prewarmed at 37° C. was added into the mixture. PT was measured with a coagulometer (ST4, Boehringer Mannheim).
# The ratio of PT at each time point after administration of the test compound to that of before administration was used as the index of anticoagulation activity.
# as §3
Structure (SMILES),IC50 (human thrombin) [µM],IC50 [1] [nM],Anti-activated blood coagulation factor X activity in plasma (%) [2] [%],Anticoagulation activity (μM): concentration that prolonged the clotting time of the control by 2 times (CT2) (normal human plasma) [µM],Death case (Male ICR mice),PT ratio (plasma prothrombin time)
"CC(C)c1ccc(CCNS(=O)(=O)c2cc(C(=N)N)ccc2O)c(OCC(=O)O)c1 [Compound 42, [2-[2-(5-Carbamimidoyl-2-hydroxybenzenesulfonylamino)-ethyl]-5-isopropylphenoxy]acetic acid]",> 100,100,–,2.4,0/5,–
"CCCCOC(=O)COc1cc(-c2ccccc2S(C)(=O)=O)ccc1CCNS(=O)(=O)c1cc(C(=N)NO)ccc1O.Cl [Compound 48, n-Butyl[4-[2-[2-Hydroxy-5-(N-hydroxycarbamimidoyl)-benzenesulfonylamino]ethyl]-2′-methanesulfonylbiphenyl-3-yloxy]acetate hydrochloride]",–,–,58.2,–,–,1.50
"CC(C)c1ccc(CCNS(=O)(=O)c2cc(C(=N)N)ccc2O)c(S(N)(=O)=O)c1 [Compound 52, 5-Carbamimidoyl-2-hydroxy-N-[2-(4-isopropyl-2-sulfamoylphenyl)ethyl]benzenesulfonamide]",> 100,16,–,–,–,–

# Continued, in another order:
IC50 (human thrombin) [µM],IC50 [1] [nM],Anti-activated blood coagulation factor X activity in plasma (%) [2] [%],Structure (SMILES),Anticoagulation activity (μM): concentration that prolonged the clotting time of the control by 2 times (CT2) (normal human plasma) [µM],Death case (Male ICR mice),PT ratio (plasma prothrombin time)
> 100,–,–,"CS(=O)(=O)c1ccccc1-c1ccc(CCNS(=O)(=O)c2cc(C(=N)N)ccc2O)c(OCC(=O)O)c1.Cl [Compound 33, [4-[2-(5-Carbamimidoyl-2-hydroxybenzenesulfonylamino)-ethyl]-2′-methanesulfonoylbiphenyl-3-yloxy]acetic acid hydrochloride]",0.52,–,–
–,–,32.0,"CCOC(=O)COc1cc(-c2ccccc2S(C)(=O)=O)ccc1CCNS(=O)(=O)c1cc(C(=N)NO)ccc1O [Compound 43, Ethyl[4-[2-[2-hydroxy-5-(N-hydroxycarbamimidoyl)-benzenesulfonylamino]ethyl]-2′-mthanesulfonylbiphenyl-3-yloxy]acetate]",–,–,1.31
–,–,51.4,"CS(=O)(=O)c1ccccc1-c1ccc(CCNS(=O)(=O)c2cc(C(=N)NO)ccc2O)c(OCC(=O)OC2CCCCC2)c1 [Compound 49, Cyclohexyl[4-[2-[2-hydroxy-5-(N-hydroxycarbamimidoyl)-benzenesulfonylamino]ethyl]-2′-methanesulfonylbiphenyl-3-yloxy]acetate]",–,–,1.43
> 100,51,–,"Cc1nc(CN(CCc2ccc(C(C)C)cc2OCC(=O)O)S(=O)(=O)c2cc(C(=N)N)ccc2O)cs1 [Compound 53, [2-[2-[(5-Carbamimidoyl-2-hydroxybenzenesulfonyl)-(2-methyl-1,3-thiazol-4-ylmethyl)amino]ethyl]-5-isopropylphenoxy]acetic acid]",–,–,–
